Source: PMC10799935, “Discovery of a peripheral 5HT2A antagonist as a clinical candidate for metabolic dysfunction-associated steatohepatitis” (Nature Communications, 2024)
Several values for one entry are separate records, joined by “and”; a condition that tells them apart may be missing. Equal entries are not always repeated.

Key:
[1] = Hepatocyte stability test, mouse; type: in vitro ADME; conditions: male, CD1, cryopreserved hepatocytes, pH 7.4, read-out: Hepatocyte stability (% remaining after 3 h)
Protocol: Hepatocyte incubations for the test compound (10 μM final concentration, n = 2 per each time point) were carried out in mouse, rat, dog, monkey and human cryopreserved hepatocytes, resuspended at a density of 0.5 million cells/ml of modified Krebs-Henseleit buffer (KHB). The information regarding the hepatocytes used in the experiment is as follows: liverPool® 10-donor mixed gender human (BioIVT, Cat.No. X008001, lot EAV), male cynomolgus monkey (BioIVT, Cat.No. M00305, lot COJ), male Beagle dog (BioIVT, Cat.No. M00205, lot USY), male Sprague Dawley rat (BioIVT, Cat.No. M00005, lot TQE) and male CD1 mouse (BioIVT, Cat.No.005052, lot LFF). In addition, the compound was also incubated with blank KHB. The final concentration of solvent (DMSO) was 0.1% of the final volume. The incubations were performed for 3 hours at 37°C and pH 7.4. Reactions were terminated at 0 and 180 minutes by the addition of 3 volumes of stop solution (acetonitrile/methanol (2:1, v/v) containing internal standard–diclofenac at 100 ng/ml). Samples (compound spiked buffer and compound spiked hepatocytes, as well as blank samples, i.e. hepatocytes with the same DMSO%) were then centrifuged and aliquots were transferred to 96-deep micronic tubes and frozen at -80 °C until LC-MS/MS analysis. […]

HFD-fed C57BL/6J mice = experiment: DIO mice: intraperitoneal glucose tolerance test (IPGTT); type: in vivo, mouse; parameters: Mean Diff. (Vehicle vs. 11c), GTT blood glucose / Mean 2 (11c group), GTT blood glucose: unit not given here; conditions: for Mean Diff. (Vehicle vs. 11c), GTT blood glucose: Dunnett's multiple comparisons test; for Significant? (Vehicle vs. 11c), GTT blood glucose: Dunnett's test, alpha 0.05; for Mean 2 (11c group), GTT blood glucose: test details, mixed-effects model; for Blood Glucose Level 0 min / Blood Glucose Level 15 min / Blood Glucose Level 30 min / Blood Glucose Level 60 min / Blood Glucose Level 90 min / Blood Glucose Level 120 min / Blood Glucose Level AUC: GTT, PO
Protocol: For the glucose tolerance test, overnight fasted mice were intraperitoneally injected with 2 g/kg D-glucose (Sigma-Aldrich). Glucose concentrations were measured using a Gluco DR. TOP glucometer (Allmedicus). The AUC (area under the curve) during the GTT was calculated using GraphPad Prism 8.0 software (La Jolla, CA, USA) by the trapezoidal method.

CYP3A4 = CYP3A4 (Homo sapiens, UniProt P08684); experiment: in vitro
Chain of CYP3A4 (P08684 whole entry): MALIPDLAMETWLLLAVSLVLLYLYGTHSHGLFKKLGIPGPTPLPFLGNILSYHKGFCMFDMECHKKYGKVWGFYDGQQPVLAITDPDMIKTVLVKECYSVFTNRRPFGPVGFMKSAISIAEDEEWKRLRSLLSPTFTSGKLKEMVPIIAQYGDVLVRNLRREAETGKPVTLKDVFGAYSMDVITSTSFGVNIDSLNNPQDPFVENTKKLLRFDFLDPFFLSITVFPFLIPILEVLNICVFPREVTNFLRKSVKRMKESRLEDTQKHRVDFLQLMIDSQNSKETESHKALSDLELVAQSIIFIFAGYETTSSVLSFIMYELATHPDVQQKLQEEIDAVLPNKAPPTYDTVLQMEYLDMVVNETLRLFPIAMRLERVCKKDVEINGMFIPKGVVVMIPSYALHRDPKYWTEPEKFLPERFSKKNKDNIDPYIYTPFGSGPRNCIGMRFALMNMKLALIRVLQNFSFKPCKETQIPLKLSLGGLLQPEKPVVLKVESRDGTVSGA

## Cc1nc2n(c(=O)c1CCN1CCC(=C3c4ccc(Cl)cc4CCc4cccnc43)CC1)CCCC2O (stereo not drawn) [Compound 11c]
[1]
  remaining at 3 h, 10 μM: 75%
HFD-fed C57BL/6J mice; 5mpk, 0 min
  Mean Diff. (Vehicle vs. 11c), GTT blood glucose: 17.89
  Significant? (Vehicle vs. 11c), GTT blood glucose: No
  Mean 2 (11c group), GTT blood glucose: 206.4
HFD-fed C57BL/6J mice; 5mpk, 15 min
  Mean Diff. (Vehicle vs. 11c), GTT blood glucose: -1.429
  Significant? (Vehicle vs. 11c), GTT blood glucose: No
  Mean 2 (11c group), GTT blood glucose: 542.4
HFD-fed C57BL/6J mice; 5mpk, 30 min
  Mean Diff. (Vehicle vs. 11c), GTT blood glucose: 41.17
  Significant? (Vehicle vs. 11c), GTT blood glucose: No
  Mean 2 (11c group), GTT blood glucose: 575
HFD-fed C57BL/6J mice; 5mpk, 60 min
  Mean Diff. (Vehicle vs. 11c), GTT blood glucose: 150
  Significant? (Vehicle vs. 11c), GTT blood glucose: Yes
  Mean 2 (11c group), GTT blood glucose: 473.2
HFD-fed C57BL/6J mice; 5mpk, 90 min
  Mean Diff. (Vehicle vs. 11c), GTT blood glucose: 176.5
  Significant? (Vehicle vs. 11c), GTT blood glucose: Yes
  Mean 2 (11c group), GTT blood glucose: 359.1
HFD-fed C57BL/6J mice; 5mpk, 120 min
  Mean Diff. (Vehicle vs. 11c), GTT blood glucose: 168.6
  Significant? (Vehicle vs. 11c), GTT blood glucose: Yes
  Mean 2 (11c group), GTT blood glucose: 270.4
HFD-fed C57BL/6J mice; 5 or 10 mpk, DIO mice
  Glucose tolerance: improved
HFD-fed C57BL/6J mice; 10mpk, 0 min
  Mean Diff. (Vehicle vs. 11c), GTT blood glucose: 40.33
  Significant? (Vehicle vs. 11c), GTT blood glucose: No
  Mean 2 (11c group), GTT blood glucose: 183.9
HFD-fed C57BL/6J mice; 10mpk, 15 min
  Mean Diff. (Vehicle vs. 11c), GTT blood glucose: 13.5
  Significant? (Vehicle vs. 11c), GTT blood glucose: No
  Mean 2 (11c group), GTT blood glucose: 527.5
HFD-fed C57BL/6J mice; 10mpk, 30 min
  Mean Diff. (Vehicle vs. 11c), GTT blood glucose: 33.08
  Significant? (Vehicle vs. 11c), GTT blood glucose: No
HFD-fed C57BL/6J mice; 10mpk, 60 min
  Mean Diff. (Vehicle vs. 11c), GTT blood glucose: 136.4
  Significant? (Vehicle vs. 11c), GTT blood glucose: No
  Mean 2 (11c group), GTT blood glucose: 486.8
HFD-fed C57BL/6J mice; 10mpk, 90 min
  Mean Diff. (Vehicle vs. 11c), GTT blood glucose: 180.6
  Significant? (Vehicle vs. 11c), GTT blood glucose: Yes
HFD-fed C57BL/6J mice; 10mpk, 120 min
  Mean Diff. (Vehicle vs. 11c), GTT blood glucose: 191.3
  Significant? (Vehicle vs. 11c), GTT blood glucose: Yes
  Mean 2 (11c group), GTT blood glucose: 247.7
HFD-fed C57BL/6J mice; DIO mice, 5mpk, 0 min, group mean
  Blood Glucose Level 0 min: 206.4 mg/dL
HFD-fed C57BL/6J mice; DIO mice, 5mpk, 0 min, individual animals, 5 mg/kg
  Blood Glucose Level 0 min: 241.0 mg/dL and 220.5 mg/dL and 182.0 mg/dL and 211.0 mg/dL and 157.0 mg/dL and 205.0 mg/dL and 228.0 mg/dL
HFD-fed C57BL/6J mice; DIO mice, 5mpk, 15 min, group mean
  Blood Glucose Level 15 min: 542.4 mg/dL
HFD-fed C57BL/6J mice; DIO mice, 5mpk, 15 min, individual animals, 5 mg/kg
  Blood Glucose Level 15 min: 629.0 mg/dL and 541.0 mg/dL and 509.0 mg/dL and 553.5 mg/dL and 596.5 mg/dL and 427.0 mg/dL
HFD-fed C57BL/6J mice; DIO mice, 5mpk, 30 min, group mean
  Blood Glucose Level 30 min: 575.0 mg/dL
HFD-fed C57BL/6J mice; DIO mice, 5mpk, 30 min, individual animals, 5 mg/kg
  Blood Glucose Level 30 min: 662.5 mg/dL and 628.5 mg/dL and 650.5 mg/dL and 617.5 mg/dL and 539.5 mg/dL and 470.5 mg/dL and 456.0 mg/dL
HFD-fed C57BL/6J mice; DIO mice, 5mpk, 60 min, group mean
  Blood Glucose Level 60 min: 473.2 mg/dL
HFD-fed C57BL/6J mice; DIO mice, 5mpk, 60 min, individual animals, 5 mg/kg
  Blood Glucose Level 60 min: 526.0 mg/dL and 500.0 mg/dL and 631.5 mg/dL and 438.0 mg/dL and 309.5 mg/dL and 481.5 mg/dL and 426.0 mg/dL
HFD-fed C57BL/6J mice; DIO mice, 5mpk, 90 min, group mean
  Blood Glucose Level 90 min: 359.1 mg/dL
HFD-fed C57BL/6J mice; DIO mice, 5mpk, 90 min, individual animals, 5 mg/kg
  Blood Glucose Level 90 min: 412.0 mg/dL and 393.0 mg/dL and 445.5 mg/dL and 295.0 mg/dL and 202.0 mg/dL and 352.0 mg/dL and 414.5 mg/dL
HFD-fed C57BL/6J mice; DIO mice, 5mpk, 120 min, group mean
  Blood Glucose Level 120 min: 270.4 mg/dL
HFD-fed C57BL/6J mice; DIO mice, 5mpk, 120 min, individual animals, 5 mg/kg
  Blood Glucose Level 120 min: 297.0 mg/dL and 295.0 mg/dL and 358.5 mg/dL and 219.0 mg/dL and 181.0 mg/dL and 242.5 mg/dL and 299.5 mg/dL
HFD-fed C57BL/6J mice; DIO mice, 5mpk, group mean
  Blood Glucose Level AUC: 26885.0 mg·min/dL
HFD-fed C57BL/6J mice; DIO mice, 10mpk, 0 min, group mean
  Blood Glucose Level 0 min: 183.9 mg/dL
HFD-fed C57BL/6J mice; DIO mice, 10mpk, 0 min, individual animals, 10 mg/kg
  Blood Glucose Level 0 min: 113.5 mg/dL and 200.5 mg/dL and 204.0 mg/dL and 222.5 mg/dL and 179.0 mg/dL and 184.0 mg/dL
HFD-fed C57BL/6J mice; DIO mice, 10mpk, 15 min, group mean
  Blood Glucose Level 15 min: 527.5 mg/dL
HFD-fed C57BL/6J mice; DIO mice, 10mpk, 15 min, individual animals, 10 mg/kg
  Blood Glucose Level 15 min: 483.5 mg/dL and 423.0 mg/dL and 498.0 mg/dL and 646.0 mg/dL and 555.0 mg/dL and 559.5 mg/dL
HFD-fed C57BL/6J mice; DIO mice, 10mpk, 30 min, group mean
  Blood Glucose Level 30 min: 591.4 mg/dL
HFD-fed C57BL/6J mice; DIO mice, 10mpk, 30 min, individual animals, 10 mg/kg
  Blood Glucose Level 30 min: 550.5 mg/dL and 531.0 mg/dL and 653.0 mg/dL and 657.0 mg/dL and 577.0 mg/dL and 580.0 mg/dL
HFD-fed C57BL/6J mice; DIO mice, 10mpk, 60 min, group mean
  Blood Glucose Level 60 min: 486.8 mg/dL
HFD-fed C57BL/6J mice; DIO mice, 10mpk, 60 min, individual animals, 10 mg/kg
  Blood Glucose Level 60 min: 370.0 mg/dL and 458.5 mg/dL and 558.0 mg/dL and 603.0 mg/dL and 357.5 mg/dL and 574.0 mg/dL
HFD-fed C57BL/6J mice; DIO mice, 10mpk, 90 min, group mean
  Blood Glucose Level 90 min: 365.9 mg/dL
HFD-fed C57BL/6J mice; DIO mice, 10mpk, 90 min, individual animals, 10 mg/kg
  Blood Glucose Level 90 min: 283.5 mg/dL and 422.0 mg/dL and 442.0 mg/dL and 440.5 mg/dL and 227.0 mg/dL and 380.5 mg/dL
HFD-fed C57BL/6J mice; DIO mice, 10mpk, 120 min, group mean
  Blood Glucose Level 120 min: 247.7 mg/dL
HFD-fed C57BL/6J mice; DIO mice, 10mpk, 120 min, individual animals, 10 mg/kg
  Blood Glucose Level 120 min: 170.0 mg/dL and 260.5 mg/dL and 387.0 mg/dL and 315.5 mg/dL and 148.5 mg/dL and 204.5 mg/dL
HFD-fed C57BL/6J mice; DIO mice, 10mpk, group mean
  Blood Glucose Level AUC: 28219.0 mg·min/dL
CYP3A4
  inhibition at 10 µM: 17.6%
